Key:
[1] = test system: human lymphoid cells; experiment: tritiated thymidine uptake in secondary mixed lymphocyte reaction; assay type: cell-based; details: 2°-MLR; for inhibition at 740 µM / inhibition at 2200 µM / inhibition at 6700 µM / inhibition at 20000 µM: Homo sapiens, Lymphocyte
Description: In addition to testing the immunosuppressive activities of succinylacetone derivatives in a primary mixed lymphocyte reaction, or a phytohemagglutinin stimulation assay, two of the derivatives, succinylacetone methyl ester and methyl 4-acetyl-5-oxohexanoate, were tested in a secondary mixed lymphocyte reaction assay. The secondary mixed lymphocyte assays differs from the primary mixed lymphocyte reaction assays in that they employ many more primed responder cells that are responsive to the primary stimulating cells. The presence of such responsive cells is a reflection of immunological memory in an ongoing immunological response. […] These cells are then used in the secondary mixed lymphocyte reaction. It is worth noting that because a secondary mixed lymphocyte reaction is greatly enriched for responsive cells, fewer cells can be used in the secondary assay.
It will be appreciated that described therein is a method for carrying out secondary lymphocyte reactions using mouse cells, however such methods are generally applicable to performing secondary mixed lymphocyte reactions using human cells with modifications that are well known to those skilled in the art. […] The assays were conducted in duplicate involving lymphoid cells isolated from two individuals.

[2] = test system: adjuvant induced arthritis; experiment: adjuvant induced arthritis in rats, overall arthritis score; intraarticular right paw, per kg: succinylacetone 325 μg, methyl ester 150 μg, 4-acetyl-5-oxohexanoate 560 μg; assay type: in vivo, rat
[3] = test system: peripheral blood lymphocytes; experiment: viability of peripheral blood lymphocytes with or without PHA, trypan blue exclusion; assay type: cell-based, human; details: for Cells/ml: first individual
Description: Viability was determined using the trypan blue exclusion method well known in the art. […] The assays were conducted in duplicate wherein peripheral blood lymphocytes were isolated from two separate individuals, and then treated with or without phytohemagglutinin in the presence of various concentrations of the appropriate succinylacetone derivative.

COC(=O)CCC(C(C)=O)C(C)=O [Methyl 4-Acetyl-5-Oxohexanoate, methyl 4-acetyl-5-oxohexanoate]
CPM ([1]; Exp I, 247 μM): 73805 CPM
CPM ([1]; Exp I, 740 μM): 61568 CPM
CPM ([1]; Exp I, 2.2 mM): 1995 CPM
CPM ([1]; Exp I, 6.7 mM): 112 CPM
CPM ([1]; Exp I, 20 mM): 76 CPM
CPM ([1]; Exp II, 247 μM): 86893 CPM
CPM ([1]; Exp II, 740 μM): 88958 CPM
CPM ([1]; Exp II, 2.2 mM): 43264 CPM
CPM ([1]; Exp II, 6.7 mM): 4402 CPM
CPM ([1]; Exp II, 20 mM): 134 CPM
inhibition at 740 µM ([1]; Exp I, 740 μM): 23.6%
inhibition at 2200 µM ([1]; Exp I, 2.2 mM): 97.5%
inhibition at 6700 µM ([1]; Exp I, 6.7 mM): 9.99%
inhibition at 20000 µM ([1]; Exp I, 20 mM): 9.99%
inhibition at 740 µM ([1]; Exp II, 740 μM): 4.8%
inhibition at 2200 µM ([1]; Exp II, 2.2 mM): 53.7%
inhibition at 6700 µM ([1]; Exp II, 6.7 mM): 95.3%
inhibition at 20000 µM ([1]; Exp II, 20 mM): 9.99%
overall arthritis score ([2]; Exp. I (treated from same day), day 14): 3.2 ± 2.2
overall arthritis score ([2]; Exp. I (treated from same day), day 16): 3.4 ± 2.2
overall arthritis score ([2]; Exp. I (treated from same day), day 18): 5.0 ± 3.2
overall arthritis score ([2]; Exp. I (treated from same day), day 20): 7.0 ± 4.0
overall arthritis score ([2]; Exp. I (treated from same day), day 22): 8.2 ± 4.9
overall arthritis score ([2]; Exp. I (treated from same day), day 24): 7.2 ± 4.2
overall arthritis score ([2]; Exp. I (treated from same day), day 26): 7.2 ± 4.2
overall arthritis score ([2]; Exp. II (treated from day 4), day 14): 1.0 ± 1.4
overall arthritis score ([2]; Exp. II (treated from day 4), day 16): 2.2 ± 2.5
overall arthritis score ([2]; Exp. II (treated from day 4), day 18): 1.8 ± 1.8
overall arthritis score ([2]; Exp. II (treated from day 4), day 20): 2.2 ± 2.0
overall arthritis score ([2]; Exp. II (treated from day 4), day 22): 5.0 ± 3.5
overall arthritis score ([2]; Exp. II (treated from day 4), day 24): 3.4 ± 3.6
overall arthritis score ([2]; Exp. II (treated from day 4), day 26): 4.0 ± 3.7
overall arthritis score ([2]; Exp. III (treated from day 14), day 14): 2.0 ± 2.0
overall arthritis score ([2]; Exp. III (treated from day 14), day 16): 2.4 ± 1.5
overall arthritis score ([2]; Exp. III (treated from day 14), day 18): 3.4 ± 2.6
overall arthritis score ([2]; Exp. III (treated from day 14), day 20): 5.6 ± 2.7
overall arthritis score ([2]; Exp. III (treated from day 14), day 22): 7.4 ± 4.8
overall arthritis score ([2]; Exp. III (treated from day 14), day 24): 7.4 ± 5.3
overall arthritis score ([2]; Exp. III (treated from day 14), day 26): 7.4 ± 5.3
effect on arthritis ([2]; comparison of treatment schedules, in words): apparently most active when administered every other day from day 4 to day 24
toxicity ([3]; as high as 20 mM): no toxicity
Cells/ml ([3]; (+) PHA, 3 μM): 0.45 X 10^6 Cells/ml
Cells/ml ([3]; (+) PHA, 9 μM): 0.47 X 10^6 Cells/ml
Cells/ml ([3]; (+) PHA, 27 μM): 0.46 X 10^6 Cells/ml
Cells/ml ([3]; (+) PHA, 81 μM): 0.38 X 10^6 Cells/ml
Cells/ml ([3]; (+) PHA, 244 μM): 0.44 X 10^6 Cells/ml
Cells/ml ([3]; (+) PHA, 733 μM): 0.38 X 10^6 Cells/ml
Cells/ml ([3]; (+) PHA, 2.2 mM): 0.49 X 10^6 Cells/ml
Cells/ml ([3]; (+) PHA, 6.7 mM): 0.46 X 10^6 Cells/ml
Cells/ml ([3]; (+) PHA, 20 mM): 0.49 X 10^6 Cells/ml
Cells/ml ([3]; (-) PHA, 3 μM): 0.39 X 10^6 Cells/ml
Cells/ml ([3]; (-) PHA, 9 μM): 0.55 X 10^6 Cells/ml
Cells/ml ([3]; (-) PHA, 27 μM): 0.44 X 10^6 Cells/ml
Cells/ml ([3]; (-) PHA, 81 μM): 0.42 X 10^6 Cells/ml
Cells/ml ([3]; (-) PHA, 244 μM): 0.40 X 10^6 Cells/ml
Cells/ml ([3]; (-) PHA, 733 μM): 0.37 X 10^6 Cells/ml
